Patent US20100200049A1, “BIOHYBRID SYSTEM FOR HYDROGEN PRODUCTION” (Alliance for Sustainable Energy, LLC, priority 2008, published 2010)

Columns and labels:
[1] = biological target: T1, PS II (Thermosynechococcus vestitus, UniProt P0A444); assay: Photocurrent of GC-PS II electrode wired to hydrogenase electrode, with DCMU added; format: biochemical, Thermosynechococcus elongatus; conditions: 5 μM and 10 μM DCMU in working solution; red light 660 nm, 10 s light/40 s dark; all oxidizing potentials tested (+0.2 to +1.0 V)
T1 construct: PS II complexes were isolated from Thermosynechococcus elongatus; from tissue; host or cells: Thermosynechococcus elongatus cells (photosynthetic membranes); method of Schatz and Witt 1984 with modifications
Description: (§1) PS II complexes were isolated from Thermosynechococcus elongatus according to methods described by Schatz and Witt (1984, Extraction and characterisation of oxygen-evolving Photosystem II complexes from a thermophilic cyanobacterium Synechococcus sp. Photobiochem. Photobiophys. 7: 1-14) with modifications.
(§2) The PS II electrode was prepared by depositing 5 μl of 1 mM isolated PS II complex preparation onto the electrode in almost complete darkness, with a weak non-actinic green light present, and dried overnight at +4° C. in darkness. A pyrolytic graphite edge (PGE) electrode with a diameter of 4.8 mm or a glassy carbon (GC) electrode with a diameter of 3 mm was used. Directly before the experiment, the surface of the electrode containing dried PS II sample was covered with a dialysis membrane (12000-14000 MW cutoff) that was held in place by o-ring.
The photocurrent was generated by illumination of the PS II electrode by red LED (660 nm) or white LED. The following light/dark cycle was used: 10 s light, 40 s dark, unless specified otherwise.
The experiments in which the PS II electrode was tested by addition of DCMU were performed using the GC-PS II electrode, wired to a 4.8 mm diameter PGE-hydrogenase electrode. […]

[2] = biological target: T1, PS II; assay: Photocurrent of PGE-PS II electrode with soluble electron mediator; format: biochemical, Thermosynechococcus elongatus; conditions: DMBQ 60 μM vs no mediator; +0.4 V vs Ag/AgCl; red light 660 nm, 10 s light/40 s dark
Description: as §1, §2
A 50 mM stock solution of DMBQ in ethanol was prepared fresh before the experiment and used as an electron mediator for PS II in various concentrations. […]

| Compound | effect on generation of photocurrent by the PS II electrode [1] | effect on amplitude of photocurrent generated by the PS II electrode [2] |
| --- | --- | --- |
| CN(C)C(=O)Nc1ccc(Cl)c(Cl)c1 [DCMU] | inhibited the generation of photocurrent |  |
| CC1=CC(=O)C=C(C)C1=O [DMBQ, 2,6-dimethyl 1,4-benzoquinone] |  | dramatically improved the amplitude of photocurrent |
